What was measured:
human SIRT3 [1] = biological target: T1, human SIRT3 (Homo sapiens, UniProt Q9NTG7); test: Surface plasmon resonance binding assay, immobilized SIRT3; settings: SPR, Scatchard analysis, analytes 5-80 μM
T1 construct: pET151D/Topo (Sirt3-114-380 and Sirt5-34-302); His tag (N, cleaved yes); made in house; host or cells: Escherichia coli
T1 sequence (Q9NTG7 114-380): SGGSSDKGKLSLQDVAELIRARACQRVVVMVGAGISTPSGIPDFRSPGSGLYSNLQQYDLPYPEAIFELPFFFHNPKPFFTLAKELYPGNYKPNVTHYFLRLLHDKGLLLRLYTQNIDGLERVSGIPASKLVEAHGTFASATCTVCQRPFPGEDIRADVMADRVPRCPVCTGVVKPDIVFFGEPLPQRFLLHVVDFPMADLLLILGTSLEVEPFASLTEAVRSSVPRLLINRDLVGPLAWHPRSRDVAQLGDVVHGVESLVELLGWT
Procedure: Next, surface plasmon resonance (SPR) experiments were conducted with selected SIRT3 activators 2e and 3a–d to ascertain their biophysical interaction with the human SIRT3 protein. Their parental compounds 2 and 3, together with honokiol, were used as positive controls. The experiments were carried out twice at different concentrations (5, 10, 20, 40, and 80 μM), by injecting the compounds at increasing doses (Figure 5). The resonance units (RU) increase with respect to baseline indicates the formation of the SIRT3/ligand complex, the plateau region represents the steady-state phase of the interaction (RUeq, RU at equilibrium) and the decrease in RU after 180 s represents dissociation of analytes from the immobilized SIRT3 protein after injection of the buffer.
SPR experiments were carried out using a SensiQ Pioneer system (SensiQ, Oklahoma City, OK, USA), essentially as in Genovese et al. 2020[84] and in Battista et al. 2021,[85] with some modifications, as follows.
The sensor chip (COOH5) was chemically activated by a 35 μL injection of a 1:1 mixture of […] (200 mM) and N-hydroxysuccinimide (50 mM) at a flow rate of 5 μL/min. Sirtuin3 (ligand) was immobilized on activated sensor chips via amine coupling. Immobilization was carried out in 20 mM sodium acetate at pH 4.0; unreacted groups were blocked by injecting 1 M ethanolamine hydrochloride (35 μL). Sirtuin3 immobilization level obtained was 1500–4000 RU.
The analytes, dissolved in 100% DMSO at 10 mM concentration, were diluted in buffer 20 mM Hepes, 150 mM NaCl, 0.005% surfactant P20 buffer (HBSP) to a concentration of 200 μM (2% final DMSO concentration), further diluted in HBSP + 2% DMSO (HBSP2%D) and injected on the sensor chip at a constant flow rate (nominal flow rate = 30 μL/min) at the following concentrations: 5, 10, 20, 40, and 80 μM.
The RU increase relative to baseline indicates complex formation (taking place at known analytes concentrations at each moment in the gradient); the plateau region represents the steady-state phase of the interaction (RUeq); and the decrease in RU after 180 s represents dissociation of analytes from the immobilized Sirtiun3 after injection of HBSP2%D. Regeneration procedures are based on two long (2000 and 500 s) injections of buffer, separated by a brief (5 s) injection of 10 mM NaOH.
Control experiments were performed in sensor chips treated as described above in the absence of an immobilized ligand. Kinetic evaluation of the sensorgrams was obtained using the SensiQ Qdat program and full fitting with 1, 2, and 3 sites; Scatchard analysis was used to determine apparent KD values.

[2] = test system: GDH activity in MDA-MB-231 cells; test: GDH activity assay in lysates of treated MDA-MB-231 cells; type: cell-based, human; settings: 50 μM, 4 h
Procedure: Selected compounds 3a–d were tested in triple-negative breast cancer MDA-MB-231 cells to evaluate their effects on SIRT3 physiological substrates. First, the effect on the activity of GDH (an established SIRT3 substrate activated through deacetylation[60]−[62]) was investigated by a coupled enzyme assay. […] These effects of SIRT3 activators clearly phenocopied those observed in the SIRT3-overexpressing MDA-MB-231 cells (SIRT3^+) (Figure 6).
GDH activity in cells treated or not with the SIRT3 activators 3a–d and the reference compounds 2 and 3 was measured using a GDH activity assay kit (MAK099, Merck) following the manufacturer’s instructions. Briefly, 10^6 cells were lysed in 40 μL of GDH assay buffer and kept for 10 min in ice. Afterward, lysates were centrifuged to collect supernatants. Ten microliters of supernatant were added to 40 μL of GDH buffer and 100 μL of a mix containing GDH assay buffer, developer, and glutamate. The whole mix was transferred into a 96-well plate and incubated at 37 °C for 3 min. Finally, absorbance was read at 450 nm using a GloMax multi detection system (Promega, Milan, Italy). The absorbance of the assay buffer was subtracted from each experimental sample.

human SIRT3 [3] = biological target: T1, human SIRT3; set-up: method as in PMID 36228194; settings: 100 μM; cited from earlier work
[4] = test system: HIF-1α, EPAS-1, and CA-IX protein expression in CAL-62; test: Western blot of HIF-1α, EPAS-1 and CA-IX in CAL-62 cells under hypoxia; type: cell-based
Procedure: (§1) Based on these findings, we decided to assess the ability of the SIRT3 activators 3a–d to impair HIF-1α, EPAS-1, and CA-IX protein expression in CAL-62 (Figure 10A–F) and MDA-MB-231 (Figure 11A–F) cell lines treated with the compounds at 50 μM for 48 h and under hypoxia conditions.
(§2) Breast cancer cell line MDA-MB-231, anaplastic thyroid cancer cell line CAL-62 and human keratinocytes HaCaT were purchased from ATCC and were cultured in RPMI 1640 medium (R0883 Sigma Aldrich-MERCK) (MDA-MB-231 and CAL-62) or DMEM medium (11965092, Gibco) supplemented with 10% fetal bovine serum (Sigma-Aldrich-MERCK, F9665), 2 mM glutamine (G7513; Sigma-Aldrich-MERCK), 100 units/mL penicillin and 0.1 mg/mL streptomycin (P0781; Sigma-Aldrich-MERCK). Adherent cells were detached by Trypsin–EDTA solution (TA049; Sigma-Aldrich-MERCK). Cells were maintained at 37 °C in humidified incubator with 5% CO2. Cells were treated with […] (CoCl2) (Merck; C8661) dissolved in distilled, sterile water for 24 h to induce hypoxia (200 μM). Hypoxic and normoxic cells were also treated with 10/50 μM of the indicated compounds (dissolved in DMSO) for 48 h, maintaining the CoCl2 in the culture medium for hypoxic conditions. SIRT3 inhibitor 3-TYP was dissolved in DMSO and added to a final concentration of 1 μM for 24 and/or 48 h.
(§3) The following antibodies were used in this study: ACTB (Merck; A5316), HIF1-α (Cell Signaling; 14179), HIF2/EPAS-1 (Santa Cruz Biotechnology sc-13596), HXKII (Santa Cruz Biotechnology sc-6521), CAIX (Novus Biotechnology NB100-417), SIRT3 (Cell Signaling; 2627S), MnSOD (Abcam ab13533), MnSOD K68 (Abcam ab137037), MnSOD K122 (Abcam ab214675), peroxidase-conjugated AffiniPure Goat Anti-Rabbit IgG (H + L) (Jackson ImmunoResearch; 111-035-003), and peroxidase-conjugated AffiniPure Goat Anti-Mouse IgG (H + L) (Jackson ImmunoResearch; 115-035-062).
(§4) Treated and untreated cells were collected and centrifuged at 3000 rpm for 5 min. After removing the supernatant, cells were lysed in 70 μL of lysis buffer containing: 50 mM Tris-Cl (Merck; 93352), 250 mM sodium chloride (NaCl, Merck; S7653), 5 mM ethylenediaminetetraacetic acid (EDTA; Merck; E6758), 0.1% Triton X-100 and 0.1 mM dithiothreitol (Merck; D9163) plus 1 mM phenylmethylsulfonyl fluoride (PMSF, Merck; 93482), protease inhibitor cocktail (PI; Merck; P8340), 1 mM sodium orthovanadate (NA3VO4, Merck; S6508), and 10 mM sodium fluoride (NaF, Merck; 201154) (lysis buffer). After 30 min on ice, samples were centrifuged at 13,000 rpm for 10 min at 4 °C, and the supernatants collected. Protein concentration was determined by the Bradford assay (Bio-Rad; 500-0205). The equivalent of 15 or 50 μg of protein was boiled for 5 min, electrophoresed onto denaturing SDS-PAGE gel, and transferred onto a […] nitrocellulose membrane (Bio-Rad; 162-0115). After blocking with 5% milk, membranes were incubated with the appropriate primary antibody overnight. The next day, after three washes with 0.1% Tween 20 (Merck; P9416) in PBS (PBST) for 30 min at rt, membranes were incubated with the appropriate secondary antibody for 1 h at rt. After three more washes in PBST, the detection of the relevant protein was assessed by enhanced chemiluminescence (Lite Ablot TURBO, Euro-Clone; EMP012001). Densitometric analysis of the bands, relative to ACTB, was performed using ImageJ Software v1.51 (NIH, Bethesda, MD, USA).

[5] = test system: acK68- and acK122-MnSOD in CAL-62 cells; test: Western blot of MnSOD acK68 and acK122 marks in CAL-62 cells; type: cell-based; settings: CAL-62, negative control SIRT3 inhibitor
Procedure: (§5) K68-MnSOD acetylation promotes a transformation-permissive phenotype, leading to a chemotherapy-resistant breast cancer cell model using cisplatin and doxorubicin.[68] […] The specific SIRT3 inhibitor 3-TYP was utilized as negative control.
as §2, with “Hypoxic and normoxic cells were also treated with 10/50 μM of the indicated compounds (dissolved in DMSO) for 48 h, maintaining the CoCl2 in the culture medium for hypoxic conditions. SIRT3 inhibitor 3-TYP was dissolved in DMSO and added to a final concentration of 1 μM for 24 and/or 48 h.” left out
(§6) Treated and untreated cells were collected and centrifuged at 3000 rpm for 5 min. […] Protein concentration was determined by the Bradford assay (Bio-Rad; 500-0205). […] After three more washes in PBST, the detection of the relevant protein was assessed by enhanced chemiluminescence (Lite Ablot TURBO, Euro-Clone; EMP012001). […]

[6] = test system: acK68- and acK122-MnSOD in MDA-MB-231 cells; test: Western blot of MnSOD acK68 and acK122 marks in MDA-MB-231 cells; type: cell-based, human; settings: MDA-MB-231, negative control SIRT3 inhibitor
Procedure: as §5
as §2, with “Hypoxic and normoxic cells were also treated with 10/50 μM of the indicated compounds (dissolved in DMSO) for 48 h, maintaining the CoCl2 in the culture medium for hypoxic conditions. SIRT3 inhibitor 3-TYP was dissolved in DMSO and added to a final concentration of 1 μM for 24 and/or 48 h.” left out
as §3, §6

[7] = test system: HIF-1α, EPAS-1, and CA-IX protein expression in MDA-MB-231; test: Western blot of HIF-1α, EPAS-1 and CA-IX in MDA-MB-231 cells under hypoxia; type: cell-based, human; settings: MDA-MB-231, hypoxia, negative control SIRT3 inhibitor
Procedure: as §1, §2, §3, §4

## C=CCc1ccc(O)c(-c2ccc(O)c(CC=C)c2)c1 [honokiol]
Human SIRT3 [1]
  Kd: 40 to 47 µM

## CCOC(=O)C1=CN(C(=O)c2cc(OC)c(OC)c(OC)c2)C=C(C(=O)OCC)C1c1ccccc1 [Compound 3]
Human SIRT3 [1]
  Kd: 40 to 47 µM
[2]
  GDH activation: around 175%
Human SIRT3 [3]
  SIRT3 activation: over 400%

## CCOC(=O)C1=CN(C(=O)c2ccc(OC)cc2)C=C(C(=O)OCC)C1c1ccccc1 [Compound 3b, Diethyl 1-(4-methoxybenzoyl)-4-phenyl-1,4-dihydropyridine-3,5-dicarboxylate]
[2]
  effect on GDH activity in cell lysates: negligible effect
[4]; CAL-62, 50 μM, 48 h, hypoxia
  CA-IX protein expression: significantly downregulated

## c1cncc(-c2cnn[nH]2)c1 [3-TYP, reference compound]
[5]
  acetylation levels of both K68 and K122 residues of MnSOD: markedly increased
[6]
  acetylation levels of both K68 and K122 residues of MnSOD: markedly increased
[4]; CAL-62, hypoxia, negative control SIRT3 inhibitor
  HIF-1α, EPAS-1, and CA-IX protein expression: negligible effects
[7]
  HIF-1α, EPAS-1, and CA-IX protein expression: did not show any activity

— PMC10388363, “Novel 1,4-Dihydropyridines as Specific Binders and Activators of SIRT3 Impair Cell Viability and Clonogenicity and Downregulate Hypoxia-Induced Targets in Cancer Cells” (Journal of Medicinal Chemistry, 2023)
